{
  "source": "patent US6020121A",
  "about": "(priority 1996, dated 2000)",
  "origin": "cited, not measured here",
  "test_system": "production of several toxins",
  "settings": "Agr independent; cited from earlier work",
  "data": [
    {"smiles": "CCCCCCCCCCCC(=O)OCC(O)CO", "note": "(stereo not shown) [GML, Glycerol monolaureate, reference compound]", "values": [
      {"measurement": "production of several toxins", "result": "lower the production of several toxins in an Agr independent manner"}
    ]}
  ]
}
